Results taken from patent US20240423207A1, “PICOLINAMIDE COMPOUNDS WITH FUNGICIDAL ACTIVITY” (CORTEVA AGRISCIENCE LLC, priority 2014, published 2024).
Where two headings read alike, the source gives them in different places.

Columns and labels:
[1] = test system: Mycosphaerella graminicola; Anamorph: Septoria tritici; test: Leaf Blotch of Wheat (SEPTTR) fungicidal activity on wheat seedlings; type: in vivo; settings: Zymoseptoria tritici; for pest or weed control at 121.5 g/ha: Low Volume, 121.5 g/H; for pest or weed control at 100 ppm: High Volume
Method: Example A: Evaluation of Fungicidal Activity: Leaf Blotch of Wheat (Mycosphaerella graminicola; Anamorph: Septoria tritici; Bayer code […]): Technical grades of materials were dissolved in acetone, which were then mixed with nine volumes of water (H2O) containing 110 ppm Triton X-100. The fungicide solutions were applied onto wheat seedlings using an automated booth sprayer to run-off. All sprayed plants were allowed to air dry prior to further handling. All fungicides were evaluated using the aforementioned method for their activity vs. all target diseases, unless stated otherwise. Wheat leaf blotch and brown rust activity were also evaluated using track spray applications, in which case the fungicides were formulated as EC formulations, containing 0.1% Trycol 5941 in the spray solutions. Wheat plants (variety Yuma) were grown from seed in a greenhouse in 50% mineral soil/50% soil-less Metro mix until the first leaf was fully emerged, with 7-10 seedlings per pot. These plants were inoculated with an aqueous spore suspension of Septoria tritici either prior to or after fungicide treatments. After inoculation the plants were kept in 100% relative humidity (one day in a dark dew chamber followed by two to three days in a lighted dew chamber at 20° C.) to permit spores to germinate and infect the leaf. The plants were then transferred to a greenhouse set at 20° C. for disease to develop. When disease symptoms were fully expressed on the 1st leaves of untreated plants, infection levels were assessed on a scale of 0 to 100 percent disease severity. Percent disease control was calculated using the ratio of disease severity on treated plants relative to untreated plants.

[2] = test system: Puccinia triticina; Synonym: Puccinia recondita f sp. tritici; test: Wheat Brown Rust (PUCCRT) fungicidal activity on wheat seedlings; type: in vivo; settings: for pest or weed control at 121.5 g/ha: Low Volume, 121.5 g/H; for pest or weed control at 100 ppm: High Volume
Method: Technical grades of materials were dissolved in acetone, which were then mixed with nine volumes of water (H2O) containing 110 ppm Triton X-100. The fungicide solutions were applied onto wheat seedlings using an automated booth sprayer to run-off. All sprayed plants were allowed to air dry prior to further handling. All fungicides were evaluated using the aforementioned method for their activity vs. all target diseases, unless stated otherwise. Wheat leaf blotch and brown rust activity were also evaluated using track spray applications, in which case the fungicides were formulated as EC formulations, containing 0.1% Trycol 5941 in the spray solutions. Wheat plants (variety Yuma) were grown from seed in a greenhouse in 50% mineral soil/50% soil-less Metro mix until the first leaf was fully emerged, with 7-10 seedlings per pot. These plants were inoculated with an aqueous spore suspension of Septoria tritici either prior to or after fungicide treatments. After inoculation the plants were kept in 100% relative humidity (one day in a dark dew chamber followed by two to three days in a lighted dew chamber at 20° C.) to permit spores to germinate and infect the leaf. The plants were then transferred to a greenhouse set at 20° C. for disease to develop. When disease symptoms were fully expressed on the 1st leaves of untreated plants, infection levels were assessed on a scale of 0 to 100 percent disease severity. Percent disease control was calculated using the ratio of disease severity on treated plants relative to untreated plants. Example B: Evaluation of Fungicidal Activity: Wheat Brown Rust (Puccinia triticina; Synonym: Puccinia recondita f sp. tritici; Bayer code PUCCRT): Wheat plants (variety Yuma) were grown from seed in a greenhouse in 50% mineral soil/50% soil-less Metro mix until the first leaf was fully emerged, with 7-10 seedlings per pot. These plants were inoculated with an aqueous spore suspension of Puccinia triticina either prior to or after fungicide treatments. After inoculation the plants were kept in a dark dew room at 22° C. with 100% relative humidity overnight to permit spores to germinate and infect the leaf. The plants were then transferred to a greenhouse set at 24° C. for disease to develop. Fungicide formulation, application and disease assessment followed the procedures as described in the Example A.

[3] = 24 h, 1 Day Protectant, read-out: SEPTTR 1DP disease control
[4] = 72 h, 3 Day Curative, read-out: SEPTTR 3DC disease control
[5] = 24 h, 1 Day Protectant, read-out: PUCCRT 1DP disease control
[6] = 72 h, 3 Day Curative, read-out: PUCCRT 3DC disease control

How did the pest or weed control at 121.5 g/ha [1, 3] turn out when `COc1ccnc(C(=O)N[C@@H](CC(C)C)C(=O)O[C@@H](C)C(c2ccc(F)cc2)c2ccc(F)cc2)c1OCOC(C)=O` [Cmpd 186] was run?
Its pest or weed control at 121.5 g/ha is over 80%.

What about the pest or weed control at 121.5 g/ha [1, 4] of the same compound?
Its pest or weed control at 121.5 g/ha is under 80%.

And the pest or weed control at 121.5 g/ha [2, 5]?
The pest or weed control at 121.5 g/ha was under 80%.

With `COc1ccnc(C(=O)N[C@@H](C)C(=O)O[C@@H](C)C(c2cccs2)c2cccs2)c1O` [Cmpd 91] as the compound, how does the pest or weed control at 100 ppm [1, 3] read?
The pest or weed control at 100 ppm was over 80%.

What about the pest or weed control at 100 ppm [2, 5] of the same compound?
Its pest or weed control at 100 ppm is over 80%.

And the pest or weed control at 100 ppm [2, 6]?
The pest or weed control at 100 ppm was under 80%.

Which results are given for `COc1ccnc(C(=O)N[C@@H](C)C(=O)O[C@@H](C)C(O)(c2ccccc2)c2ccccc2)c1OCOC(C)=O` [Cmpd 138]?
pest or weed control at 121.5 g/ha [1, 3]: > 80%; pest or weed control at 121.5 g/ha [1, 4]: < 80%; pest or weed control at 121.5 g/ha [2, 6]: < 80%

Which pest or weed control at 121.5 g/ha [1, 3] does the source give for `COc1ccnc(C(=O)N[C@@H](C)C(=O)O[C@@H](C)C(c2ccc(F)c(C)c2)c2ccc(F)c(C)c2)c1OC(C)=O` [Cmpd 217] here?
Its pest or weed control at 121.5 g/ha is over 80%.

What about the pest or weed control at 121.5 g/ha [1, 4] of the same compound?
Its pest or weed control at 121.5 g/ha is over 80%.

What about the pest or weed control at 121.5 g/ha [2, 5] of the same compound?
Its pest or weed control at 121.5 g/ha is over 80%.

And the pest or weed control at 121.5 g/ha [2, 6]?
The pest or weed control at 121.5 g/ha was under 80%.

For `COc1ccc(C(c2ccc(OC)cc2)[C@H](C)OC(=O)[C@H](C)NC(=O)c2nccc(OC)c2OC(C)=O)cc1` [Cmpd 155], which pest or weed control at 121.5 g/ha [1, 3] is on record?
The pest or weed control at 121.5 g/ha was over 80%.

And the pest or weed control at 121.5 g/ha [1, 4]?
The pest or weed control at 121.5 g/ha was over 80%.

What about the pest or weed control at 121.5 g/ha [2, 5] of the same compound?
Its pest or weed control at 121.5 g/ha is over 80%.

And the pest or weed control at 121.5 g/ha [2, 6]?
The pest or weed control at 121.5 g/ha was over 80%.

Which pest or weed control at 100 ppm [1, 3] does the source give for `CCOc1ccnc(C(=O)N[C@@H](C)C(=O)O[C@@H](C)C(c2ccc(F)cc2)c2ccc(F)cc2)c1O` [Cmpd 111] here?
The pest or weed control at 100 ppm was under 80%.

What about the pest or weed control at 100 ppm [1, 4] of the same compound?
The pest or weed control at 100 ppm was over 80%.

And the pest or weed control at 100 ppm [2, 5]?
Its pest or weed control at 100 ppm is under 80%.

How did the pest or weed control at 100 ppm [1, 3] turn out when `COc1ccnc(C(=O)N[C@@H](C)C(=O)O[C@@H](C)C(c2ccc(F)c(Cl)c2)c2ccc(F)c(Cl)c2)c1O` [Cmpd 132] was run?
Its pest or weed control at 100 ppm is over 80%.

What about the pest or weed control at 100 ppm [1, 4] of the same compound?
Its pest or weed control at 100 ppm is over 80%.

And the pest or weed control at 100 ppm [2, 5]?
The pest or weed control at 100 ppm was over 80%.

And the pest or weed control at 100 ppm [2, 6]?
The pest or weed control at 100 ppm was under 80%.

What does the source list for `COc1ccnc(C(=O)N[C@@H](C)C(=O)O[C@@H](C)C(c2ccc(-c3ccccc3)cc2)c2ccc(-c3ccccc3)cc2)c1O` [Cmpd 109]?
pest or weed control at 100 ppm [1, 4]: < 80%; pest or weed control at 100 ppm [2, 5]: < 80%

`COc1ccnc(C(=O)N[C@@H](C)C(=O)O[C@@H](C)C(O)(c2ccc(Cl)c(F)c2)c2ccc(Cl)c(F)c2)c1O` [Cmpd 128] was tested. Which pest or weed control at 100 ppm [1, 3] did it give?
The pest or weed control at 100 ppm was over 80%.

And the pest or weed control at 100 ppm [1, 4]?
Its pest or weed control at 100 ppm is under 80%.

What about the pest or weed control at 100 ppm [2, 5] of the same compound?
Its pest or weed control at 100 ppm is under 80%.

How did the pest or weed control at 121.5 g/ha [1, 3] turn out when `COc1ccnc(C(=O)N[C@@H](C)C(=O)O[C@@H](C)C(c2cccc(F)c2)c2cccc(F)c2)c1OC(C)=O` [Cmpd 156] was run?
The pest or weed control at 121.5 g/ha was over 80%.

What about the pest or weed control at 121.5 g/ha [1, 4] of the same compound?
Its pest or weed control at 121.5 g/ha is over 80%.

What about the pest or weed control at 121.5 g/ha [2, 5] of the same compound?
Its pest or weed control at 121.5 g/ha is over 80%.

What about the pest or weed control at 121.5 g/ha [2, 6] of the same compound?
Its pest or weed control at 121.5 g/ha is over 80%.

With `COc1ccnc(C(=O)N[C@@H](C)C(=O)O[C@@H](C)C(c2ccc(F)c(Cl)c2)c2ccc(F)c(Cl)c2)c1OCOC(C)=O` [Cmpd 219] as the compound, how does the pest or weed control at 121.5 g/ha [1, 3] read?
The pest or weed control at 121.5 g/ha was over 80%.

What about the pest or weed control at 121.5 g/ha [1, 4] of the same compound?
The pest or weed control at 121.5 g/ha was over 80%.

What about the pest or weed control at 121.5 g/ha [2, 5] of the same compound?
Its pest or weed control at 121.5 g/ha is over 80%.

What does the source list for `CCCCC(=O)Oc1c(OC)ccnc1C(=O)N[C@@H](C)C(=O)O[C@@H](C)C(c1ccc(F)cc1)c1ccc(F)cc1` [Cmpd 213]?
pest or weed control at 121.5 g/ha [1, 3]: > 80%; pest or weed control at 121.5 g/ha [1, 4]: > 80%; pest or weed control at 121.5 g/ha [2, 5]: < 80%; pest or weed control at 121.5 g/ha [2, 6]: < 80%

What does the source list for `COCCC(=O)Oc1c(OC)ccnc1C(=O)N[C@@H](C)C(=O)O[C@@H](C)C(c1ccc(F)cc1)c1ccc(F)cc1` [Cmpd 209]?
pest or weed control at 121.5 g/ha [1, 3]: > 80%; pest or weed control at 121.5 g/ha [1, 4]: > 80%; pest or weed control at 121.5 g/ha [2, 5]: > 80%; pest or weed control at 121.5 g/ha [2, 6]: < 80%

For `COc1ccnc(C(=O)N[C@@H](C)C(=O)O[C@@H](C)C(c2ccc(Br)cc2)c2ccc(Br)cc2)c1OCOC(C)=O` [Cmpd 169], which pest or weed control at 121.5 g/ha [1, 3] is on record?
The pest or weed control at 121.5 g/ha was over 80%.

And the pest or weed control at 121.5 g/ha [1, 4]?
Its pest or weed control at 121.5 g/ha is over 80%.

What about the pest or weed control at 121.5 g/ha [2, 5] of the same compound?
The pest or weed control at 121.5 g/ha was over 80%.

And the pest or weed control at 121.5 g/ha [2, 6]?
The pest or weed control at 121.5 g/ha was under 80%.
